From the NIST ThermoML archive (doi:10.1021/acs.jced.6b00168)
± gives the expanded uncertainty stated by the source.

Test: mn = molality of the nth substance listed, in mol/kg
Settings: 100 kPa, Liquid; for speed of sound: Frequency=3 MHz, Sing-around technique in a fixed-path interferometer; for mass density: Vibrating tube method

CC(C)C[C@H](N)C(=O)O [L-leucine] + O
Settings | mass density, 288.15 K [kg/m3] | mass density, 298.15 K [kg/m3] | mass density, 308.15 K [kg/m3] | mass density, 318.15 K [kg/m3] | speed of sound, 288.15 K [m/s] | speed of sound, 298.15 K [m/s] | speed of sound, 308.15 K [m/s] | speed of sound, 318.15 K [m/s]
m1 = 0.00991 | 999.363 ± 0.23 | 997.29 ± 0.23 | 994.279 ± 0.23 | 990.433 ± 0.23 | 1468 ± 1.6 | 1497 ± 1.6 | 1520.5 ± 1.6 | 1537 ± 1.6
m1 = 0.02042 | 999.615 ± 0.23 | 997.535 ± 0.23 | 994.535 ± 0.23 | 990.663 ± 0.23 | 1469.3 ± 1.6 | 1498.2 ± 1.6 | 1521.5 ± 1.6 | 1538 ± 1.6
m1 = 0.04026 | 1000.09 ± 0.23 | 998.005 ± 0.23 | 994.994 ± 0.23 | 991.098 ± 0.23 | 1471.8 ± 1.6 | 1500.4 ± 1.6 | 1523.5 ± 1.6 | 1539.8 ± 1.6
m1 = 0.06014 | 1000.6 ± 0.23 | 998.476 ± 0.23 | 995.441 ± 0.23 | 991.533 ± 0.23 | 1474.2 ± 1.6 | 1502.6 ± 1.6 | 1525.5 ± 1.6 | 1541.7 ± 1.6
m1 = 0.0802 | 1001.07 ± 0.23 | 998.929 ± 0.23 | 995.893 ± 0.23 | 991.972 ± 0.23 | 1476.7 ± 1.6 | 1504.9 ± 1.6 | 1527.5 ± 1.6 | 1543.5 ± 1.6
m1 = 0.1002 | 1001.57 ± 0.23 | 999.402 ± 0.23 | 996.345 ± 0.23 | 992.41 ± 0.23 | 1479.2 ± 1.6 | 1507.1 ± 1.6 | 1529.5 ± 1.6 | 1545.3 ± 1.6
m1 = 0.1246 | 1002.13 ± 0.23 | 999.979 ± 0.23 | 996.896 ± 0.23 | 992.945 ± 0.23 | 1482.3 ± 1.6 | 1509.8 ± 1.6 | 1532 ± 1.6 | 1547.6 ± 1.6
m1 = 0.1502 | 1002.71 ± 0.23 | 1000.56 ± 0.23 | 997.446 ± 0.23 | 993.506 ± 0.23 | 1485.5 ± 1.6 | 1512.7 ± 1.6 | 1534.6 ± 1.6 | 1550 ± 1.6

CC(C)C[C@H](NC(=O)CN)C(=O)O [glycyl-L-leucine] + O
Settings | mass density, 288.15 K [kg/m3] | mass density, 298.15 K [kg/m3] | mass density, 308.15 K [kg/m3] | mass density, 318.15 K [kg/m3] | speed of sound, 288.15 K [m/s] | speed of sound, 298.15 K [m/s] | speed of sound, 308.15 K [m/s] | speed of sound, 318.15 K [m/s]
m1 = 0.01036 | 999.623 ± 0.23 | 997.544 ± 0.23 | 994.554 ± 0.23 | 990.713 ± 0.23 | 1468.4 ± 1.6 | 1497.4 ± 1.6 | 1521 ± 1.6 | 1537.6 ± 1.6
m1 = 0.02041 | 1000.14 ± 0.23 | 998.07 ± 0.23 | 995.045 ± 0.23 | 991.171 ± 0.23 | 1470.1 ± 1.6 | 1499 ± 1.6 | 1522.6 ± 1.6 | 1539.1 ± 1.6
m1 = 0.04005 | 1001.13 ± 0.23 | 999.05 ± 0.23 | 995.995 ± 0.23 | 992.11 ± 0.23 | 1473.3 ± 1.6 | 1502 ± 1.6 | 1525.5 ± 1.6 | 1542 ± 1.6
m1 = 0.06009 | 1002.13 ± 0.24 | 999.995 ± 0.23 | 996.94 ± 0.24 | 993.02 ± 0.24 | 1476.6 ± 1.6 | 1505.2 ± 1.6 | 1528.5 ± 1.6 | 1544.9 ± 1.6
m1 = 0.08023 | 1003.08 ± 0.24 | 1000.95 ± 0.24 | 997.866 ± 0.24 | 993.927 ± 0.24 | 1479.9 ± 1.6 | 1508.3 ± 1.6 | 1531.5 ± 1.6 | 1547.9 ± 1.6
m1 = 0.09965 | 1004.02 ± 0.24 | 1001.9 ± 0.24 | 998.802 ± 0.24 | 994.85 ± 0.24 | 1483.1 ± 1.6 | 1511.3 ± 1.6 | 1534.4 ± 1.6 | 1550.7 ± 1.6
m1 = 0.1502 | 1006.4 ± 0.24 | 1004.28 ± 0.24 | 1001.19 ± 0.24 | 997.236 ± 0.24 | 1491.4 ± 1.6 | 1519.2 ± 1.6 | 1542 ± 1.6 | 1558.2 ± 1.6
m1 = 0.2014 | 1008.79 ± 0.25 | 1006.66 ± 0.25 | 1003.57 ± 0.25 | 999.61 ± 0.24 | 1499.8 ± 1.6 | 1527.1 ± 1.6 | 1549.7 ± 1.6 | 1565.7 ± 1.6
